Patent US20240315991A1, “USES OF HNF4 ALPHA AGONISTS” (Sanford Burnham Prebys Medical Discovery Institute, priority 2023, published 2024)
“Also recorded” adds a separate entry of the source.

Tests used:
HNF4α = target: T1, HNF4α (Mus musculus, UniProt P49698); test: HNF4α immunofluorescence of liver sections; type: in vivo; conditions: C57BL/6 mice, HFD containing 4000 ppm NCT (approximately 400 mg/kg/d), oral, 10 weeks, vs HFD
T1 construct: from tissue; host or cells: liver of C57BL/6J mice
Description: NCT oral administration. Four-week-old male C57BL/6J (JAX cat #000664) mice were purchased from Jackson laboratory and were maintained in a 12 h light/dark cycle throughout the experiment. Prior to the experiments, mice were acclimated for 2 weeks. Six-week-old mice with similar body weights were randomized to a normal diet (NC), a high fat diet (HFD) (Research Diets, cat #D12492 60 kcal % fat) or HFD containing 4000 ppm NCT (HFD+NCT) (Research Diets, 60 kcal % fat+4000 ppm NCT), which was calculated to provide approximately 400 mg/kg/d NCT. HFD chow containing NCT was made with gray dye to distinguish it from regular HFD chow that had green dye. Mice for each treatment group were placed in separate cages. […] Body weight gain and food intake were measured every week for 10 weeks. […]
Immunofluorescence. […] Slides were mounted using fluorescence mounting medium and images were obtained at ×40 magnification using an Olympus IX71 fluorescence microscope. Fluorescence intensity of HNF4α-stained nuclei and VDAC stained mitochondria was calculated using MetaMorph TL software (version 7.6.5.0, Olympus). Fold change was calculated by normalizing to values from mice fed NC.
C57BL/6 mice were fed normal chow (NC), a high fat diet (HFD), or a high fat diet containing 4000 ppm NCT (HFD+NCT) for 10 weeks. […] The fold change was calculated vs. NC (NC, N=3, HFD and HFD+NCT, N=12). […]

[1] = tested on: mitochondrial fatty acid oxidation (FAO) activity; test: Fatty acid oxidation assay in liver lysate; type: in vivo, mouse
Description: NCT oral administration. Four-week-old male C57BL/6J (JAX cat #000664) mice were purchased from Jackson laboratory and were maintained in a 12 h light/dark cycle throughout the experiment. Prior to the experiments, mice were acclimated for 2 weeks. Six-week-old mice with similar body weights were randomized to a normal diet (NC), a high fat diet (HFD) (Research Diets, cat #D12492 60 kcal % fat) or HFD containing 4000 ppm NCT (HFD+NCT) (Research Diets, 60 kcal % fat+4000 ppm NCT), which was calculated to provide approximately 400 mg/kg/d NCT. HFD chow containing NCT was made with gray dye to distinguish it from regular HFD chow that had green dye. Mice for each treatment group were placed in separate cages. Equal amounts of fresh chow were provided every week to all mice. Body weight gain and food intake were measured every week for 10 weeks. After 10 weeks of chow treatment, mice were sacrificed for analysis. All animal experiments were approved by the Institutional Animal Care and Use Committee (IACUC) of the Sanford Burnham Prebys Medical Discovery Institute in accordance with national regulations. Sample size was chosen based on the prior study of NCT delivered by IP injection.
Fatty acid oxidation assay. FAO in liver lysate was measured according to manufacturer's instructions using a calorimetric assay kit (Cat #E-141, Biomedical Research Service Center, State University of New York, Buffalo, NY).
Thus, the effect of NCT on FAO appeared to be a secondary rather than primary effect.

PPARGC1A mRNA = test: RT-PCR of mouse liver, PPARGC1A; type: in vivo; conditions: HFD+NCT vs HFD, FIGS. 4A-4C
Description: NCT oral administration. Four-week-old male C57BL/6J (JAX cat #000664) mice were purchased from Jackson laboratory and were maintained in a 12 h light/dark cycle throughout the experiment. Prior to the experiments, mice were acclimated for 2 weeks. Six-week-old mice with similar body weights were randomized to a normal diet (NC), a high fat diet (HFD) (Research Diets, cat #D12492 60 kcal % fat) or HFD containing 4000 ppm NCT (HFD+NCT) (Research Diets, 60 kcal % fat+4000 ppm NCT), which was calculated to provide approximately 400 mg/kg/d NCT. HFD chow containing NCT was made with gray dye to distinguish it from regular HFD chow that had green dye. Mice for each treatment group were placed in separate cages. Equal amounts of fresh chow were provided every week to all mice. Body weight gain and food intake were measured every week for 10 weeks. After 10 weeks of chow treatment, mice were sacrificed for analysis. […]
(§1) RT-PCR. […] Quantitative real time PCR (RT-PCR) analysis was performed using SYBR® Select Master Mix (Applied Biosystems) and an ABI 7900HT thermal cycler (Applied Biosystems, Thermo Fisher Scientific). Ct values were normalized to 18s rRNA and are expressed as fold change over samples from mice fed NC or cultured human hepatocytes without NCT.

Sirt1 mRNA = test: RT-PCR of primary human hepatocytes, Sirtuin1; type: cell-based; conditions: HEP-fat media, NCT 5, 15, and 40 μM, FIG. 4G
Description: Primary human hepatocytes. Experiments with primary human hepatocytes were performed by CN-Bio (Cambridge, UK). Briefly, primary human hepatocytes (PHHs), human Kupffer cells (HKs) and human stellate cells (HSCs) were seeded onto CN-Bio's PhysioMimix LC12 MPS culture plates at 6×10^5 cells for PHHs and 6×10^4 cells for HKs and HSCs in 1.6 ml of CN-Bio's HEP-lean media with 5% FCS. Throughout the experiment the cells were maintained at a flow rate of 1 μl/s. After 24 hours (Day 1) of seeding, the media was changed to HEP-lean media and the cells were incubated until day 4 to allow the cells to form microtissues. At day 4 post seeding, media was changed to HEP-fat media and treated with DMSO or NCT (5, 15, and 40 μM). Media was replaced on days 6 and 8. Cells were harvested on day 10 for RNA extraction and culture media was collected for ELISA analysis.
as §1

T6PNE cells = test: Nitric oxide assay in T6PNE cells treated with palmitate; type: cell-based; conditions: 0.12 mM palmitate plus 15 μM NCT, 3 days, FIG. 5H
Description: T6PNE cells were maintained in RPMI (5.5 mM glucose, Corning) supplemented with 10% fetal bovine serum (FBS, Sigma-Aldrich) and 1% penicillin-streptomycin (pen-strep, Gibco) in 5% CO2 at 37° C. Cells were treated with […] palmitate plus 0 or 15 μM NCT for 3 days in 10 cm plates and harvested with 500 μL PBS. For tissue specimens, snap frozen mouse liver was weighed and homogenized with PBS. NO was measured with the QuantiChrom Nitric Oxide Assay kit (D2NO-100, BioAssay Systems). Homogenized samples (150 μL) were processed for deproteination with 8 μL ZnSO4 and 8 μL NaOH. For normalization, an aliquot of samples from T6PNE cells was taken for BCA assay before deproteination. Samples and standard from kit were incubated with reagents for 20 min at 60° C. and measured OD 540 nm.
150 mM Palmitate (Sigma-Aldrich) was prepared in 50% ethanol and precomplexed with 15% fatty acid-free BSA (Research Organics, Cleveland, OH, USA) in a 37° C. water shaker. BSA-precomplexed palmitate was used as a 12 mM stock solution for all assays with a final concentration of 0.12 mM palmitate in cell culture medium.

[2] = liver lysate, HFD+NCT vs HFD, 10 weeks

T1 sequence (P49698 whole entry): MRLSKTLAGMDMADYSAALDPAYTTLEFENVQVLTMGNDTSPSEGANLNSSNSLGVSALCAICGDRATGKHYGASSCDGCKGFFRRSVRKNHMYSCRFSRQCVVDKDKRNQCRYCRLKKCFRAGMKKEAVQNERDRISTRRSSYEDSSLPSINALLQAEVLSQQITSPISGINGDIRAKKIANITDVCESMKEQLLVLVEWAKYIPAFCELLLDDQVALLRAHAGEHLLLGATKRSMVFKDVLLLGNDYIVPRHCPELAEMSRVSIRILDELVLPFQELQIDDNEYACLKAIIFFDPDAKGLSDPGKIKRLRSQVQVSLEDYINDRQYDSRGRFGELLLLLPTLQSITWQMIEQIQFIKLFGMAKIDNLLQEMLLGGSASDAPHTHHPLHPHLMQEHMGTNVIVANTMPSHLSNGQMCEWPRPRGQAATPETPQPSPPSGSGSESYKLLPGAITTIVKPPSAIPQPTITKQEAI

Question: How did the “HNF4α expression in liver (HNF4α fluorescence intensity)” value (HNF4α) turn out when `O=C(/C=C/c1ccc(O)c(O)c1)NCCc1ccc(O)cc1` [NCT, N-trans caffeoyltyramine] was run?
Answer: The value was “reversed”.

Question: What about the “FAO activity in the presence of octanoyl CoA” value [1, 2] of the same compound?
Answer: The value was “increase”.

Question: What about the “baseline FAO activity in the absence of octanoyl CoA” value [1, 2] of the same compound?
Answer: Its value is “increase”.

Question: And the “overall FAO activity in the assay” value [1, 2]?
Answer: Its value is “unchanged; also recorded: non-significant”.

Question: What about the fatty acid oxidation ([1]; mice fed HFD containing NCT vs HFD alone) of the same compound?
Answer: Its fatty acid oxidation is “increased”.

Question: And the “PPARGC1A(PGC1a) mRNA level in mouse liver” value (PPARGC1A mRNA)?
Answer: Its value is “increase”.

Question: And the “Sirt1 mRNA in primary human hepatocytes” value (Sirt1 mRNA)?
Answer: The value was “reverse the depression”.

Question: What about the “level of NO in cultured cells treated with palmitate” value (T6PNE cells) of the same compound?
Answer: The value was “decrease”.
